The target in this assay is Mpa (mycobacterial proteasome ATPase) (Mycobacterium tuberculosis, UniProt P9WQN5). The experiment in a line: […]. In kind it is binding.

This passage reports Kd results from paper PMC5856640 (ACS chemical biology, 2018).

The structures appear in SMILES notation.

Sequence of Mpa (mycobacterial proteasome ATPase) (P9WQN5 whole entry): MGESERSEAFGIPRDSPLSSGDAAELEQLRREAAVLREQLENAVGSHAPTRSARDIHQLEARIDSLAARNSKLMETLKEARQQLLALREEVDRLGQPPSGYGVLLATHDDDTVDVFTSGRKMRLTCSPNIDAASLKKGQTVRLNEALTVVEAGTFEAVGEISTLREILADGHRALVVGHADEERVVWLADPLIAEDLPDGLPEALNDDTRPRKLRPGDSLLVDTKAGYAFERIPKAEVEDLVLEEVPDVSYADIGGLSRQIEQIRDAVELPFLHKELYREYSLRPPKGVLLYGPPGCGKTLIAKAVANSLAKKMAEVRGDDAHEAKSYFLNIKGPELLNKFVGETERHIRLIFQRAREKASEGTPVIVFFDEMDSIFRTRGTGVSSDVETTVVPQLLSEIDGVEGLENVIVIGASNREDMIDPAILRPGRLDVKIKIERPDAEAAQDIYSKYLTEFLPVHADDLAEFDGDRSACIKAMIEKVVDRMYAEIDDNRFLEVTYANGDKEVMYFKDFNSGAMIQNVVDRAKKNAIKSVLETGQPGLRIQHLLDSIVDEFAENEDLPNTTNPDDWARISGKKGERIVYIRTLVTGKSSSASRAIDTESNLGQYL

`c1ccc(N=NN2CCOCC2)cc1` [MTBA, NSC 136065] registered a Kd of 1 ± 0.1 nM.
`Cn1cnc2ncnn2c1=S` [MTBB, NSC 145180] showed a Kd of 400 ± 100 nM.

A word on the Kd: it is the free concentration of one partner at which half of the binding sites on the other are occupied at equilibrium, for simple one-to-one binding.
